Test results taken from patent US8067395B2, “Inhibitors of tyrosine kinases and uses thereof” (Pharmacyclics, Inc., priority 2006, dated 2011).

The compounds below were run against Btk (Homo sapiens, UniProt Q06187) (assay: Btk TR-FRET kinase inhibition assay). Details: pH 7.4, ATP at the Km for the kinase, 1 μM peptide substrate, [Btk]total=0.5 nM, read-out: Btk-TRFRET (Ki).
Btk, sequence (Q06187 whole entry): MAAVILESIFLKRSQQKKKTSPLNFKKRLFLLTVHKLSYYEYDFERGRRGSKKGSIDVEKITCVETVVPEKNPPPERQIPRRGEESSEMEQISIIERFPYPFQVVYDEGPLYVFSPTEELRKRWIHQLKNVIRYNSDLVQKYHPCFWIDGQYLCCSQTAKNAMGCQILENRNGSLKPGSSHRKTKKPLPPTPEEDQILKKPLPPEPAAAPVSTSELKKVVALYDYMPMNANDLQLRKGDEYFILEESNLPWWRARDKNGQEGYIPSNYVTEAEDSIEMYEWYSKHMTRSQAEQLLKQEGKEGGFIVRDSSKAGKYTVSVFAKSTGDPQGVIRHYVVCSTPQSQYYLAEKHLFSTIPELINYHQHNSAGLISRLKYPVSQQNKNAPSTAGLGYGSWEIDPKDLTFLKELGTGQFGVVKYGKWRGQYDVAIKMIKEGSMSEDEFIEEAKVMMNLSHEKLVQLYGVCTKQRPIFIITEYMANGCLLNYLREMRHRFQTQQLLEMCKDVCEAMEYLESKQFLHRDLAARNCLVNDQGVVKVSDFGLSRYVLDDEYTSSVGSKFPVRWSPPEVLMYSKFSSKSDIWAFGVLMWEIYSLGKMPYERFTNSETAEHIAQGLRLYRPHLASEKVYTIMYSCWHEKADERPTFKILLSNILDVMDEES
Assay type: biochemical
Compound `CCC(=O)N1CCN(CC=Cc2[nH]c(=O)c3c(ccc4nc(Nc5ccc(F)cc5C)n(C)c43)c2C)CC1` [Compound 33, 2-(4-fluoro-2-methylphenylamino)-1,6-dimethyl-7-[3-(N-ethylcarbonylpiperazin-1-yl)-propenyl]-1,8-dihydro-imidazo[4,5-h]isoquinolin-9-one] has a Ki of under 100 nM. For `Cc1cc(F)ccc1Nc1nc2ccc3c(C)c(C=CCN4CCN(S(=O)(=O)C(C)C)CC4)[nH]c(=O)c3c2n1C` [Compound 34, 2-(4-fluoro-2-methylphenylamino)-1,6-dimethyl-7-[3-(N-(isopropylsulfonyl)-piperazin-1-yl)-propenyl]-1,8-dihydro-imidazo[4,5-h]isoquinolin-9-one], the Ki was under 100 nM. For `CCS(=O)(=O)N1CCN(CC=Cc2[nH]c(=O)c3c(ccc4nc(Nc5ccc(F)cc5C)n(C)c43)c2C)CC1` [Compound 35, 2-(4-fluoro-2-methylphenylamino)-1,6-dimethyl-7-[3-(N-(ethylsulfonyl)-piperazin-1-yl)-propenyl]-1,8-dihydro-imidazo[4,5-h]isoquinolin-9-one], the Ki was under 100 nM. `Cc1cc(F)ccc1Nc1nc2ccc3c(C)c(C=CCN4CCN(C(=O)C(C)C)CC4)[nH]c(=O)c3c2n1C` [Compound 36, 2-(4-fluoro-2-methylphenylamino)-1,6-dimethyl-7-[3-(N-isopropylcarbonylpiperazin-1-yl)-propenyl]-1,8-dihydro-imidazo[4,5-h]isoquinolin-9-one] was tested, and the Ki was under 100 nM. For `Cc1c(C=CS(=O)(=O)c2ccccc2)[nH]c(=O)c2c1ccc1nc(Nc3c(Cl)cccc3Cl)n(C)c12` [Compound 37, 2-(2,6-dichlorophenylamino)-1,6-dimethyl-7-[2-(phenylsulfonyl)-ethenyl]-1,8-dihydro-imidazo[4,5-h]isoquinolin-9-one], the Ki was under 100 nM. `Cc1c(C(O)C(F)(F)c2cn(Cc3ccccc3)nn2)[nH]c(=O)c2c1ccc1nc(Nc3c(Cl)cccc3Cl)n(C)c12` (centres unmarked) [Compound 40, 2-(2,6-dichlorophenylamino)-1,6-dimethyl-7-[2,2-difluoro-1-hydroxy-2-(N-phenylmethyl-[1,2,3]triazol-4-yl)-ethyl]-1,8-dihydro-imidazo[4,5-h]isoquinolin-9-one] gave a Ki of over 1000 nM. In the case of `Cc1c(C(O)C#Cc2ccccc2)[nH]c(=O)c2c1ccc1nc(Nc3c(Cl)cccc3Cl)n(C)c12` (centres unmarked) [Compound 41, 2-(2,6-dichlorophenylamino)-1,6-dimethyl-7-(1-hydroxy-3-phenylprop-2-yn-1-yl)-1,8-dihydro-imidazo[4,5-h]isoquinolin-9-one], the Ki is reported as 100 to 1000 nM. Work on `C#CCN(C)CC=Cc1[nH]c(=O)c2c(ccc3nc(Nc4c(Cl)cccc4Cl)n(C)c32)c1C` [Compound 42, 2-(2,6-dichlorophenylamino)-1,6-dimethyl-7-[3-(N-methyl-N-(prop-2-ynyl)amino)prop-1-enyl]-1,8-dihydro-imidazo[4,5-h]isoquinolin-9-one] yielded a Ki of under 100 nM. Work on `C#CCN(C)CC=Cc1[nH]c(=O)c2c(ccc3nc(Nc4ccc(F)cc4C)n(C)c32)c1C` [Compound 43, 2-(4-fluoro-2-methylphenylamino)-1,6-dimethyl-7-[3-(N-methyl-N-(prop-2-ynyl)amino)prop-1-enyl]-1,8-dihydro-imidazo[4,5-h]isoquinolin-9-one] yielded a Ki of under 100 nM. `Cc1c(/C=N/O)[nH]c(=O)c2c1ccc1nc(Nc3c(Cl)cccc3Cl)n(C)c12` [Compound 44, 2-(2,6-dichlorophenylamino)-1,6-dimethyl-9-oxo-8,9-dihydro-1H-imidazo[4,5-h]isoquinoline-7-carbaldehyde oxime] gave a Ki of under 100 nM. Compound `Cc1c(C=NNC(=O)c2ccccc2)[nH]c(=O)c2c1ccc1nc(Nc3c(Cl)cccc3Cl)n(C)c12` [Compound 45, benzoic acid [2-(2,6-dichlorophenylamino)-1,6-dimethyl-9-oxo-8,9-dihydro-1H-imidazo[4,5-h]isoquinolin-7-ylmethylene]-hydrazide] has a Ki of 100 to 1000 nM.
